Tests used:
Assay type in all cases: cell-based, Staphylococcus aureus
MRSA COL (NRS100) = test: MIC, broth micro-dilution technique (CLSI); details: Table 1 protocol: serial 2-fold dilutions starting from 64 μg/ml; 35° C., 22 hours
Summary of the method: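 CLSI broth microdilution in cation-adjusted Mueller Hinton broth with 0.002% v/v Tween-80. Compounds were serially 2-fold diluted over 10 concentrations from 64 μg/ml, or from 4 μg/mL in a modified protocol; inoculum at final OD600 0.0005, incubated 35° C for 22 hours.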

MRSA strain USA300 [1] = test: Time-kill assay; details: 1 ug/mL imipenem plus 16 ug/mL Compound 155; initial density 1*10^7 cfu/mL; FIG. 2
Protocol: Time-kill experiments enable quantification of rate of bacterial growth or death in the presence of a fixed concentration of one or more antibiotics (Arhin. F., et. al., Current Protocols in Microbiology 17.1.1-17.1.22, February 2010). Time-kill experiments were performed in 96-well incubation plates using Mueller Hinton II Broth+0.002% Tween-80 as the growth media. Individual wells contained imipenem alone, Compound 155 alone, or a combination of both agents at various concentrations. MRSA strain USA300 was grown overnight at 35° C. on Mueller Hinton Agar plates, and colonies were suspended in Mueller Hinton II Broth+0.002% Tween-80 to a final density of 2*10^8 cfu/mL. To each well of the incubation plates, 5 uL of this suspension were added, resulting in an initial density of 1*10^7 cfu/mL. Plates were incubated at 35° C., and at various time points 30 ul samples were removed, mixed 1:1 with 25 mg/ml activated carbon, serially diluted in sterile phosphate buffered saline supplemented with 0.05% Tween 20, and spotted onto Mueller Hinton Agar plates to enable cfu quantification. Colonies were counted and the cfu/ml at each time point calculated by based on the dilution factor and volume spotted.

MRSA strain USA300 [2] = test: SIC determination with partner beta-lactam antibiotics
Protocol: Many compounds in the Examples, including Compound 155, synergize with a wide range of beta-lactam antibiotics as quantified by SIC determination, where the SIC is measured and defined in a manner identical to the MIC, […] being tested.

CCCCCCCCCCNCCC(=O)N[C@@H](CCCCN)C(=O)N(C)[C@@H]1C(=O)N[C@@H](C)C(=O)N[C@H](C(=O)N[C@@H](C)C(=O)N2CCC[C@H]2C(N)=O)Cc2ccc(O)c(c2)-c2cc1ccc2O.O=CO [Compound 155]
MIC (μg/mL) (COL) (MRSA COL (NRS100)): 1.3 µg/mL | time-kill: reduction of viable cells, combination compared with either agent alone (MRSA strain USA300 [1]): synergistic | Compound 155 SIC (MRSA strain USA300 [2]; MRSA strain USA300, media contains partner beta-lactam Amoxicillin/Clav at 1/4x its MIC): 0.25 µg/mL | Compound 155 SIC (MRSA strain USA300 [2]; MRSA strain USA300, media contains partner beta-lactam Ampicillin at 1/4x its MIC): 1 µg/mL | Compound 155 SIC (MRSA strain USA300 [2]; MRSA strain USA300, media contains partner beta-lactam Azlocillin at 1/4x its MIC): 1 µg/mL | Compound 155 SIC (MRSA strain USA300 [2]; MRSA strain USA300, media contains partner beta-lactam Biapenem at 1/4x its MIC): 0.0625 µg/mL | Compound 155 SIC (MRSA strain USA300 [2]; MRSA strain USA300, media contains partner beta-lactam Carbenicillin at 1/4x its MIC): 0.5 µg/mL | Compound 155 SIC (MRSA strain USA300 [2]; MRSA strain USA300, media contains partner beta-lactam Cefaclor at 1/4x its MIC): 0.25 µg/mL | Compound 155 SIC (MRSA strain USA300 [2]; MRSA strain USA300, media contains partner beta-lactam Cefamandole at 1/4x its MIC): 0.25 µg/mL | Compound 155 SIC (MRSA strain USA300 [2]; MRSA strain USA300, media contains partner beta-lactam Cefazolin at 1/4x its MIC): 0.125 µg/mL | Compound 155 SIC (MRSA strain USA300 [2]; MRSA strain USA300, media contains partner beta-lactam Cefdinir at 1/4x its MIC): ≤0.0156 µg/mL | Compound 155 SIC (MRSA strain USA300 [2]; MRSA strain USA300, media contains partner beta-lactam Cefepime at 1/4x its MIC): 0.125 µg/mL | Compound 155 SIC (MRSA strain USA300 [2]; MRSA strain USA300, media contains partner beta-lactam Cefixime at 1/4x its MIC): 0.25 µg/mL | Compound 155 SIC (MRSA strain USA300 [2]; MRSA strain USA300, media contains partner beta-lactam Cefmetazole at 1/4x its MIC): 0.5 µg/mL | Compound 155 SIC (MRSA strain USA300 [2]; MRSA strain USA300, media contains partner beta-lactam Cefonicid at 1/4x its MIC): 0.25 µg/mL | Compound 155 SIC (MRSA strain USA300 [2]; MRSA strain USA300, media contains partner beta-lactam Cefotaxime at 1/4x its MIC): 0.125 µg/mL | Compound 155 SIC (MRSA strain USA300 [2]; MRSA strain USA300, media contains partner beta-lactam Cefotetan at 1/4x its MIC): 0.5 µg/mL | Compound 155 SIC (MRSA strain USA300 [2]; MRSA strain USA300, media contains partner beta-lactam Cefoxitin at 1/4x its MIC): 0.25 µg/mL | Compound 155 SIC (MRSA strain USA300 [2]; MRSA strain USA300, media contains partner beta-lactam Cefpodoxime at 1/4x its MIC): 0.125 µg/mL | Compound 155 SIC (MRSA strain USA300 [2]; MRSA strain USA300, media contains partner beta-lactam Cefprozil at 1/4x its MIC): 0.25 µg/mL | Compound 155 SIC (MRSA strain USA300 [2]; MRSA strain USA300, media contains partner beta-lactam Ceftazidime at 1/4x its MIC): 0.5 µg/mL | Compound 155 SIC (MRSA strain USA300 [2]; MRSA strain USA300, media contains partner beta-lactam Ceftizoxime at 1/4x its MIC): 0.25 µg/mL | Compound 155 SIC (MRSA strain USA300 [2]; MRSA strain USA300, media contains partner beta-lactam Ceftriaxone at 1/4x its MIC): 0.0625 µg/mL | Compound 155 SIC (MRSA strain USA300 [2]; MRSA strain USA300, media contains partner beta-lactam Cephalothin at 1/4x its MIC): 0.0625 µg/mL | Compound 155 SIC (MRSA strain USA300 [2]; MRSA strain USA300, media contains partner beta-lactam Doripenem at 1/4x its MIC): 0.125 µg/mL | Compound 155 SIC (MRSA strain USA300 [2]; MRSA strain USA300, media contains partner beta-lactam Ertapenem at 1/4x its MIC): 0.25 µg/mL | Compound 155 SIC (MRSA strain USA300 [2]; MRSA strain USA300, media contains partner beta-lactam Faropenem at 1/4x its MIC): ≤0.0156 µg/mL | Compound 155 SIC (MRSA strain USA300 [2]; MRSA strain USA300, media contains partner beta-lactam Imipenem at 1/4x its MIC): 0.125 µg/mL | Compound 155 SIC (MRSA strain USA300 [2]; MRSA strain USA300, media contains partner beta-lactam Mecillinam at 1/4x its MIC): 1 µg/mL | Compound 155 SIC (MRSA strain USA300 [2]; MRSA strain USA300, media contains partner beta-lactam Meropenem at 1/4x its MIC): 0.25 µg/mL | Compound 155 SIC (MRSA strain USA300 [2]; MRSA strain USA300, media contains partner beta-lactam Methicillin at 1/4x its MIC): 0.25 µg/mL | Compound 155 SIC (MRSA strain USA300 [2]; MRSA strain USA300, media contains partner beta-lactam Mezlocillin at 1/4x its MIC): 0.5 µg/mL | Compound 155 SIC (MRSA strain USA300 [2]; MRSA strain USA300, media contains partner beta-lactam Moxalactam at 1/4x its MIC): 0.125 µg/mL | Compound 155 SIC (MRSA strain USA300 [2]; MRSA strain USA300, media contains partner beta-lactam Oxacillin at 1/4x its MIC): 0.125 µg/mL | Compound 155 SIC (MRSA strain USA300 [2]; MRSA strain USA300, media contains partner beta-lactam Piperacillin/tazobactam at 1/4x its MIC): 0.5 µg/mL | Compound 155 SIC (MRSA strain USA300 [2]; MRSA strain USA300, media contains partner beta-lactam Ticarcillin at 1/4x its MIC): 0.125 µg/mL | Fold reduction in Compound 155 MIC (MRSA strain USA300 [2]; MRSA strain USA300, partner beta-lactam Amoxicillin/Clav at 1/4x its MIC): 16 | Fold reduction in Compound 155 MIC (MRSA strain USA300 [2]; MRSA strain USA300, partner beta-lactam Ampicillin at 1/4x its MIC): 4 | Fold reduction in Compound 155 MIC (MRSA strain USA300 [2]; MRSA strain USA300, partner beta-lactam Azlocillin at 1/4x its MIC): 4 | Fold reduction in Compound 155 MIC (MRSA strain USA300 [2]; MRSA strain USA300, partner beta-lactam Biapenem at 1/4x its MIC): 64 | Fold reduction in Compound 155 MIC (MRSA strain USA300 [2]; MRSA strain USA300, partner beta-lactam Carbenicillin at 1/4x its MIC): 8 | Fold reduction in Compound 155 MIC (MRSA strain USA300 [2]; MRSA strain USA300, partner beta-lactam Cefaclor at 1/4x its MIC): 16 | Fold reduction in Compound 155 MIC (MRSA strain USA300 [2]; MRSA strain USA300, partner beta-lactam Cefamandole at 1/4x its MIC): 16 | Fold reduction in Compound 155 MIC (MRSA strain USA300 [2]; MRSA strain USA300, partner beta-lactam Cefazolin at 1/4x its MIC): 32 | Fold reduction in Compound 155 MIC (MRSA strain USA300 [2]; MRSA strain USA300, partner beta-lactam Cefdinir at 1/4x its MIC): >256 | Fold reduction in Compound 155 MIC (MRSA strain USA300 [2]; MRSA strain USA300, partner beta-lactam Cefepime at 1/4x its MIC): 32 | Fold reduction in Compound 155 MIC (MRSA strain USA300 [2]; MRSA strain USA300, partner beta-lactam Cefixime at 1/4x its MIC): 16 | Fold reduction in Compound 155 MIC (MRSA strain USA300 [2]; MRSA strain USA300, partner beta-lactam Cefmetazole at 1/4x its MIC): 8 | Fold reduction in Compound 155 MIC (MRSA strain USA300 [2]; MRSA strain USA300, partner beta-lactam Cefonicid at 1/4x its MIC): 16 | Fold reduction in Compound 155 MIC (MRSA strain USA300 [2]; MRSA strain USA300, partner beta-lactam Cefotaxime at 1/4x its MIC): 32 | Fold reduction in Compound 155 MIC (MRSA strain USA300 [2]; MRSA strain USA300, partner beta-lactam Cefotetan at 1/4x its MIC): 8 | Fold reduction in Compound 155 MIC (MRSA strain USA300 [2]; MRSA strain USA300, partner beta-lactam Cefoxitin at 1/4x its MIC): 16 | Fold reduction in Compound 155 MIC (MRSA strain USA300 [2]; MRSA strain USA300, partner beta-lactam Cefpodoxime at 1/4x its MIC): 32 | Fold reduction in Compound 155 MIC (MRSA strain USA300 [2]; MRSA strain USA300, partner beta-lactam Cefprozil at 1/4x its MIC): 16 | Fold reduction in Compound 155 MIC (MRSA strain USA300 [2]; MRSA strain USA300, partner beta-lactam Ceftazidime at 1/4x its MIC): 8 | Fold reduction in Compound 155 MIC (MRSA strain USA300 [2]; MRSA strain USA300, partner beta-lactam Ceftizoxime at 1/4x its MIC): 16 | Fold reduction in Compound 155 MIC (MRSA strain USA300 [2]; MRSA strain USA300, partner beta-lactam Ceftriaxone at 1/4x its MIC): 64 | Fold reduction in Compound 155 MIC (MRSA strain USA300 [2]; MRSA strain USA300, partner beta-lactam Cephalothin at 1/4x its MIC): 64 | Fold reduction in Compound 155 MIC (MRSA strain USA300 [2]; MRSA strain USA300, partner beta-lactam Doripenem at 1/4x its MIC): 32 | Fold reduction in Compound 155 MIC (MRSA strain USA300 [2]; MRSA strain USA300, partner beta-lactam Ertapenem at 1/4x its MIC): 16 | Fold reduction in Compound 155 MIC (MRSA strain USA300 [2]; MRSA strain USA300, partner beta-lactam Faropenem at 1/4x its MIC): >256 | Fold reduction in Compound 155 MIC (MRSA strain USA300 [2]; MRSA strain USA300, partner beta-lactam Imipenem at 1/4x its MIC): 32 | Fold reduction in Compound 155 MIC (MRSA strain USA300 [2]; MRSA strain USA300, partner beta-lactam Mecillinam at 1/4x its MIC): 4 | Fold reduction in Compound 155 MIC (MRSA strain USA300 [2]; MRSA strain USA300, partner beta-lactam Meropenem at 1/4x its MIC): 16 | Fold reduction in Compound 155 MIC (MRSA strain USA300 [2]; MRSA strain USA300, partner beta-lactam Methicillin at 1/4x its MIC): 16 | Fold reduction in Compound 155 MIC (MRSA strain USA300 [2]; MRSA strain USA300, partner beta-lactam Mezlocillin at 1/4x its MIC): 8 | Fold reduction in Compound 155 MIC (MRSA strain USA300 [2]; MRSA strain USA300, partner beta-lactam Moxalactam at 1/4x its MIC): 32 | Fold reduction in Compound 155 MIC (MRSA strain USA300 [2]; MRSA strain USA300, partner beta-lactam Oxacillin at 1/4x its MIC): 32 | Fold reduction in Compound 155 MIC (MRSA strain USA300 [2]; MRSA strain USA300, partner beta-lactam Piperacillin/tazobactam at 1/4x its MIC): 8 | Fold reduction in Compound 155 MIC (MRSA strain USA300 [2]; MRSA strain USA300, partner beta-lactam Ticarcillin at 1/4x its MIC): 32 | Compound 155 MIC (MRSA strain USA300 [2]; MRSA strain USA300, partner beta-lactam: None): 4 µg/mL | synergy with beta-lactam antibiotics as quantified by SIC determination (MRSA strain USA300 [2]; SIC less than or equal to 1/4 MIC means sum of the FICs ≤0.5, indicating synergy): synergize
